Reference: patent EP4813989A1, “CRYSTAL, PHARMACEUTICAL COMPOSITION, PREPARATION METHOD THEREFOR, AND USE THEREOF” (TYK Medicines, Inc., priority 2023, dated 2025)

Experiment: Pharmacokinetic test in SD rats
Assay type: in vivo
Settings: rats; for AUC(0-inf) / AUC(0-t) / Cmax / MRT last: 10 mg/kg; for Plasma concentration: 10 mg/kg p.o.
Description: Experimental animals: healthy adult SD rats, male, 6 in total, divided into two groups, with 3 rats per group, aged 6-8 weeks; and body weight approximately 200-300 g. The rats were fed in rat cages, and fasted (for at least 10 hours) with free access to water one day before the experiment. On the day of experiment, the rats were weighed and marked at the tail respectively. Blank blood samples were collected respectively before drug administration. The blood samples were collected via the tail vein. Drug administration method: intragastric gavage (p.o.): intragastric gavage with drug suspension; preparation of drug suspension: approximately 10 mg of test sample was accurately weighed, dissolved in 5% DMSO (calculated proportion), and vortexed with 10% solutol HS-15 and 85% saline to obtain a suspension with a concentration of 1.0 mg/mL; and the suspension was freshly prepared before use.
Sample collection: the rats were administered a single oral dose of 10mg/kg via intragastric gavage (p.o.). Timing was started immediately after the administration was completed, and blood samples were collected at 0.5, 1, 2, 4, 6, 8, 12 and 24 hours after administration. A volume of 0.1mL of whole blood was collected into EDTA-Na2 anticoagulant tubes, mixed by inverting 3-4 times, centrifuged at 10000 g for 5 minutes at 4°C to separate the plasma, and then the plasma was stored at -80 °C until testing. The blood samples were collected via the tail vein.
Sample preparation: 1) the samples were thawed, and 15 µL of unknown plasma samples before or after administration, standard series solutions, and single blank and double blank samples were respectively transferred into 1.5 mL centrifuge tubes. 2) 15 µL of protein precipitant (methanol) and 400 µL of internal standard solution (verapamil in methanol, approximately 10 ng/mL) were added to each sample sequentially, vortexed for 2 minutes, and then centrifuged at 4°C and 12000 rpm for 10 minutes. 3) The supernatant was collected for LC-MS/MS detection.
Analytical conditions: liquid chromatography conditions: liquid chromatography system: Shimadzu Nexera X2; chromatographic column: Agilent ZORBAX XDB-C18 3.5 (2.1 × 50 mm); column temperature: 35°C; mobile phase: A-5% acetonitrile (0.1% formic acid in water), B-95% acetonitrile (0.1% formic acid in water); injection volume: 3 µL; and
flow rate: 0.5 mL/min. Gradient elution was employed, and an elution program can be seen in the table below.
Mass spectrometry conditions: mass spectrometric analysis was carried out using an electrospray ionization (ESI) source in a positive ion mode with multiple reaction monitoring (MRM). The mass spectrometer ion source parameters and compound detection parameters can be seen in the table below.
PK parameter processing: pharmacokinetic (PK) parameters were calculated according to a plasma concentration from individual plasma concentration and corresponding sampling time data using Phoenix WinNonlin software with a non-compartmental model. (1) The PK parameters used for pharmacokinetic evaluation included: Cmax, AUC0-t, AUC0-∞, Tmax and t1/2.
(2) The parameters used for bioequivalence evaluation: Cmax, AUC0-t and AUC0-∞ were used for the bioequivalence evaluation.
Cmax: maximum plasma concentration measured within specified period, presented as measured value.
Tmax: time measured to reach maximum plasma concentration, presented as measured value. If the maximum value occurred at more than one time point, Tmax was defined as the first time point at which this value was observed.
AUC0-t: area under plasma concentration-time curve from 0 to last time point t.
AUC0-∞: area under plasma concentration-time curve from 0 to infinity. Ct was the last measured concentration, and λz was the terminal elimination rate constant. AUC0−∞ = AUC0−t + (Ct)/(λz)AUC0−∞ = AUC0−t + (Ct)/(λz) [formula]
t1/2: elimination or terminal half-life, estimated by ln2/λz.

[1] = rat, in vivo, po, intragastric gavage 10 mg/kg, Mean
[2] = rat, in vivo, po, intragastric gavage 10 mg/kg, No. 1
[3] = rat, in vivo, po, intragastric gavage 10 mg/kg, No. 2
[4] = rat, in vivo, po, intragastric gavage 10 mg/kg, No. 3

C[C@@H](Nc1ccn2ncc(C3=NOC(C)(C)N3)c2n1)c1cc(F)cc(F)c1F [crystal form A]
AUC(0-inf) [1]: 4800 ng·h/mL
AUC(0-t) [1]: 4730 ng·h/mL
Cmax [1]: 578 ng/mL
MRT last [1]: 6.09 h
AUC(0-inf) [2]: 4390 ng·h/mL
AUC(0-t) [2]: 4320 ng·h/mL
Cmax [2]: 652 ng/mL
MRT last [2]: 6.09 h
AUC(0-inf) [3]: 3580 ng·h/mL
AUC(0-t) [3]: 3550 ng·h/mL
Cmax [3]: 459 ng/mL
MRT last [3]: 5.52 h
AUC(0-inf) [4]: 6440 ng·h/mL
AUC(0-t) [4]: 6330 ng·h/mL
Cmax [4]: 623 ng/mL
MRT last [4]: 6.66 h
Tmax [2]: 4 h
Plasma concentration (0.5 h, Mean): 224 ng/mL
Plasma concentration (0.5 h, No. 1): 220 ng/mL
Plasma concentration (0.5 h, No. 2): 168 ng/mL
Plasma concentration (0.5 h, No. 3): 285 ng/mL
Plasma concentration (1 h, Mean): 300 ng/mL
Plasma concentration (1 h, No. 1): 170 ng/mL
Plasma concentration (1 h, No. 2): 257 ng/mL
Plasma concentration (1 h, No. 3): 474 ng/mL
Plasma concentration (2 h, Mean): 457 ng/mL
Plasma concentration (2 h, No. 1): 448 ng/mL
Plasma concentration (2 h, No. 2): 453 ng/mL
Plasma concentration (2 h, No. 3): 470 ng/mL
Plasma concentration (4 h, Mean): 578 ng/mL
Plasma concentration (4 h, No. 1): 652 ng/mL
Plasma concentration (4 h, No. 2): 459 ng/mL
Plasma concentration (4 h, No. 3): 623 ng/mL
Plasma concentration (6 h, Mean): 395 ng/mL
Plasma concentration (6 h, No. 1): 307 ng/mL
Plasma concentration (6 h, No. 2): 277 ng/mL
Plasma concentration (6 h, No. 3): 602 ng/mL
Plasma concentration (8 h, Mean): 312 ng/mL
Plasma concentration (8 h, No. 1): 240 ng/mL
Plasma concentration (8 h, No. 2): 238 ng/mL
Plasma concentration (8 h, No. 3): 459 ng/mL
Plasma concentration (12 h, Mean): 93.8 ng/mL
Plasma concentration (12 h, No. 1): 88.3 ng/mL
Plasma concentration (12 h, No. 2): 47.2 ng/mL
Plasma concentration (12 h, No. 3): 146 ng/mL
Plasma concentration (24 h, Mean): 12.7 ng/mL
Plasma concentration (24 h, No. 1): 11.6 ng/mL
Plasma concentration (24 h, No. 2): 5.25 ng/mL
Plasma concentration (24 h, No. 3): 21.3 ng/mL
HL_ (intragastric gavage 10 mg/kg, Mean): 3.51 h
HL_ (intragastric gavage 10 mg/kg, No. 1): 3.76 h
HL_ (intragastric gavage 10 mg/kg, No. 2): 3.07 h
HL_ (intragastric gavage 10 mg/kg, No. 3): 3.70 h
